Laboratory results from PMC11249953, “c-KIT inhibitors reduce pathology and improve behavior in the Tg(SwDI) model of Alzheimer’s disease” (Life Science Alliance, 2024).

Assays:
KIT = molecular target: T1, KIT (Homo sapiens, UniProt P10721); experiment: KINOMEscan competition binding, KIT; details: 10 µM compound; for remaining binding at 10 µM: lower = stronger binding, read-out: KIT %Ctrl @ 10000nM (POC)
T1 construct: DNA label for qPCR read-out (T7 phage fusion or DNA tag); purchased Eurofins DiscoverX Corporation; host or cells: T7 phage in E. coli (BL21-derived) or HEK-293
Description: (§1) The KINOMEscan screening platform (Eurofins DiscoverX Corporation) was performed using active site-directed competition binding assay to quantitatively measure interactions between BK40143 and BK40197 and more than 450 human kinases and disease relevant mutant variants. […] Screening “hits” are identified by measuring the amount of kinase captured in test (BK40143 and BK40197) versus control samples by using a quantitative and ultra-sensitive qRT-PCR method that detects the associated DNA label. BK40143 and BK40197 were screened at 10 µM concentration, and results for primary screen binding interactions were reported as “% Ctrl” (POC), where lower numbers indicate stronger hits and calculated as follows: [test compound signal−positive control signal/negative control signal−positive control signal]×100
(§2) negative control = DMSO (100% Ctrl)
(§3) positive control = control compound (0% Ctrl)
(§4) Based on screening data from of profiled compounds, a proportional relationship between primary screening results and corresponding compound/target affinities can be described as binding constants (Kd values) for the indicated ranges of POC values with tighter binding (higher affinity) interactions associated with lower POC values and weaker binding (lower affinity) associated with higher POC values. Briefly, kinase-tagged T7 phage strains were grown in parallel in 24-well blocks in an E. coli host derived from the BL21 strain. E. coli were grown to log-phase and infected with T7 phage from a frozen stock (multiplicity of infection = 0.4) and incubated with shaking at 32°C until lysis (90–150 min). The lysates were centrifuged (6,000g) and filtered (0.2 μm) to remove cell debris. The remaining kinases were produced in HEK-293 cells and subsequently tagged with DNA for qRT-PCR detection. Streptavidin-coated magnetic beads were treated with biotinylated small molecule ligands for 30 min at RT to generate affinity resins for kinase assays. The liganded beads were blocked with excess biotin and washed with blocking buffer (1% BSA, 0.05% Tween 20, 1 mM DTT; SeaBlock [Pierce]) to remove unbound ligand and to reduce non-specific phage binding. Binding reactions were assembled by combining kinases, liganded affinity beads, and test compounds in 1x binding buffer (20% 0.17x PBS, 0.05% Tween 20, 6 mM DTT; SeaBlock). Test compounds were prepared as 100x stocks in 100% DMSO and directly diluted into the assay. All reactions were performed in polypropylene 384-well plates in a final volume of 0.02 ml. The assay plates were incubated at RT with shaking for 1 h and the affinity beads were washed with wash buffer (1x PBS, 0.05% Tween 20). […] The kinase concentration in the eluates was measured by qRT-PCR.

MEK5 = molecular target: T2, MEK5 (Homo sapiens, UniProt Q13163); experiment: KINOMEscan competition binding, MEK5; details: 10 µM compound; for remaining binding at 10 µM: lower = stronger binding, read-out: MEK5 %Ctrl @ 10000nM (POC)
T2 construct: DNA label for qPCR read-out (T7 phage fusion or DNA tag); purchased Eurofins DiscoverX Corporation; host or cells: T7 phage in E. coli (BL21-derived) or HEK-293
T2 sequence (Q13163 1-448): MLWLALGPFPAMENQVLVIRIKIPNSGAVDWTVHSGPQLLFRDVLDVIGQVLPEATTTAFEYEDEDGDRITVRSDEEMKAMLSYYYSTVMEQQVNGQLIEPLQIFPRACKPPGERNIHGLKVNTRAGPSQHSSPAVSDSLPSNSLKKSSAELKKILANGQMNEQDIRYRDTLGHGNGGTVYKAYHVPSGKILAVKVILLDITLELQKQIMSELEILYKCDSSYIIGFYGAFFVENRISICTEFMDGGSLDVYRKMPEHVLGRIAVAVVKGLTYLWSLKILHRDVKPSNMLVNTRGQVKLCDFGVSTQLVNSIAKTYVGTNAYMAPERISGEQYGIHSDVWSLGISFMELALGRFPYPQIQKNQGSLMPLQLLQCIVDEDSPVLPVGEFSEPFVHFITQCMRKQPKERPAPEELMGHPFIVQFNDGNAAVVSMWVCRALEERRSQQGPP
Description: as §1, §2, §3, §4

SRC = molecular target: T3, SRC (Homo sapiens, UniProt P12931); experiment: KINOMEscan competition binding, SRC; details: 10 µM compound; for remaining binding at 10 µM: lower = stronger binding, read-out: SRC %Ctrl @ 10000nM (POC)
T3 construct: DNA label for qPCR read-out (T7 phage fusion or DNA tag); purchased Eurofins DiscoverX Corporation; host or cells: T7 phage in E. coli (BL21-derived) or HEK-293
Description: as §1, §2, §3, §4

CSF1R = molecular target: T4, CSF1R (Homo sapiens, UniProt P07333); experiment: KINOMEscan competition binding, CSF1R; details: 10 µM compound; for remaining binding at 10 µM: lower = stronger binding, read-out: CSF1R %Ctrl @ 10000nM
T4 construct: DNA label for qPCR read-out (T7 phage fusion or DNA tag); purchased Eurofins DiscoverX Corporation; host or cells: T7 phage in E. coli (BL21-derived) or HEK-293
Description: as §1, §2, §3, §4

IRAK1 = molecular target: T5, IRAK1 (Homo sapiens, UniProt P51617); experiment: KINOMEscan competition binding, IRAK1; details: 10 µM compound; for remaining binding at 10 µM: lower = stronger binding, read-out: IRAK1 %Ctrl @ 10000nM (POC)
T5 construct: DNA label for qPCR read-out (T7 phage fusion or DNA tag); purchased Eurofins DiscoverX Corporation; host or cells: T7 phage in E. coli (BL21-derived) or HEK-293
Description: as §1, §2, §3, §4

[1] = system: SH-SY5Y neuroblastoma cells transfected with α-synuclein; experiment: In vitro autophagy assay (Abcam kit, flow cytometry); assay type: cell-based, human; details: 10 μM, vs DMSO
Description: To establish that treatment with BK40143 and BK40197 induces autophagy, human SH-SY5Y neuroblastoma cells were transfected with an α-synuclein plasmid before being treated with rapamycin/chloroquine as a positive control, DMSO as a negative control, or an ascending dose ([…]) of either BK40143 or BK40197 for 8 h. Cells were then harvested and treated using the Abcam Autophagy Assay kit, which uses a cationic amphiphilic tracer to stain autophagic vacuoles, before analysis via flow cytometry.
Human SH-SY5Y neuroblastoma cells were grown and cultured in F12 media with 10% fetal bovine serum, 1% L-glutamine, and 1% pen/strep at normal atmospheric conditions (37°C, 21% O2, 5% CO2). Upon reaching 50–70% confluence, cells were transduced with a lentivirus containing an alpha-synuclein plasmid and allowed to grow for 8 h. Cells were then treated with an ascending dose (100 nM–10 μM) of BK40143 or BK40197, or DMSO or rapamycin/chloroquine overnight before being harvested and treated with the Abcam Autophagy Assay kit (cat. #ab139484) according to manufacturer’s protocols. Cells were then resuspended in cell staining buffer before being analyzed on a Becton Dickinson LSRFortessas flow cytometer.

[2] = system: amyloid-beta in TgAPP mice; experiment: Immunohistochemistry for amyloid-beta (6E10), hippocampus; assay type: in vivo, mouse; details: BK40143 5 mg/kg, BK40197 45 mg/kg, vs DMSO
Description: (§5) Staining for amyloid-beta and microglia was performed on left brain hemispheres collected from treated and untreated mice. Brains were cryoprotected with 30% sucrose and sectioned at 30 μm on a cryostat. Sections were then treated with an anti-amyloid beta (6E10, cat. #803001; BioLegend) or anti-IBA1 (cat. # 018-28523; Wako Chemicals) primary followed by either an AlexaFluor secondary (Thermo Fisher Scientific) and DAPI mounting medium (Vector Labs) or a biotinylated secondary and 3, 3′ diaminobenzidine chromogen substrate. Slides were imaged on either a Leica DMi8 light microscope or a Zeiss LSM 800 confocal microscope.

[3] = system: IBA1+ microglia of TgAPP mice; experiment: IBA1 staining and microglial morphological analysis (Imaris); assay type: in vivo, mouse; details: BK40143 5 mg/kg, BK40197 45 mg/kg, vs DMSO
Description: as §5
63x z-stack images (0.19 μm intervals) of IBA1 stained microglia from treated and untreated mice were collected on a Zeiss LSM confocal microscope. 3D images were then analyzed using the “surfaces” plug-in in Imaris 10.0 to ascertain cell-surface area. Individual microglial surface areas were calculated in the advanced statistics tab of Imaris.

T3 sequence (P12931 whole entry, the tested form may be a part): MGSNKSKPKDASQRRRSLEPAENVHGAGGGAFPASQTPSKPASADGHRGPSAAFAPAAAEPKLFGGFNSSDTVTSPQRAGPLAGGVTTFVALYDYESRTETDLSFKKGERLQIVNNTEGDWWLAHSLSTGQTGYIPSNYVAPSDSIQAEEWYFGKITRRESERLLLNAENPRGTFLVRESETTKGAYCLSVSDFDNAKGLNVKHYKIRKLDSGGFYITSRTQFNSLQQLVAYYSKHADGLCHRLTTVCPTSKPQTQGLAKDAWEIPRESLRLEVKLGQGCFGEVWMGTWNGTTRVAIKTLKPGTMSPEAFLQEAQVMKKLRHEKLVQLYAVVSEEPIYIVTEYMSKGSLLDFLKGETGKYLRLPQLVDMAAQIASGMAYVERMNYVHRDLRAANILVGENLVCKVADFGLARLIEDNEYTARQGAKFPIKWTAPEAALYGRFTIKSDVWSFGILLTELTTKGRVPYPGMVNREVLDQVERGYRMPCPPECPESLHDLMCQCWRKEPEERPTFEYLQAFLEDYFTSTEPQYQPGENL
T1 sequence (P10721 26-976): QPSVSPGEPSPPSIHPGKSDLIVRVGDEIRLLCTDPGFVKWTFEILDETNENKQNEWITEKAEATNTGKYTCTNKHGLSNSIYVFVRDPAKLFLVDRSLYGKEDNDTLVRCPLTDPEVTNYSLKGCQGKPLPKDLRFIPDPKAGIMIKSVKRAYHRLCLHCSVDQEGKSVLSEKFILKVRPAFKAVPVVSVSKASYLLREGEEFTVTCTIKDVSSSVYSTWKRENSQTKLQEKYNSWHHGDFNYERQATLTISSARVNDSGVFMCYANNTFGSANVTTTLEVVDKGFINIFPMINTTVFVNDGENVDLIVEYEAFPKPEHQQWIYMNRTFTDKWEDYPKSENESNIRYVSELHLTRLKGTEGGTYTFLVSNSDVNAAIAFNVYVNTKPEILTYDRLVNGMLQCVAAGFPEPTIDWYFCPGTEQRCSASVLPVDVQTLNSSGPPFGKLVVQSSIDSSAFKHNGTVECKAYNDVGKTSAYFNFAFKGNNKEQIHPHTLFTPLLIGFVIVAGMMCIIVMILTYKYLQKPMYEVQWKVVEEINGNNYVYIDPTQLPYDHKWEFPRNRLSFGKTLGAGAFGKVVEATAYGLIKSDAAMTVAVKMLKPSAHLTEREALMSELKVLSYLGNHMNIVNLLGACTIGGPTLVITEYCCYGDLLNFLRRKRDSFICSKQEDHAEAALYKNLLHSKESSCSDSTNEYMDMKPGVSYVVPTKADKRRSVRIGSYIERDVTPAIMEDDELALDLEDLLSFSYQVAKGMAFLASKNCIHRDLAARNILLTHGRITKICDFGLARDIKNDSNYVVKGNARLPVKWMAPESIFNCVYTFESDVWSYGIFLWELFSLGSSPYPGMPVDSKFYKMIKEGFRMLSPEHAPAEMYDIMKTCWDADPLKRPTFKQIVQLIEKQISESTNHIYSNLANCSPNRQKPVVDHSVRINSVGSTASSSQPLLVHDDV
T5 sequence (P51617 whole entry, the tested form may be a part): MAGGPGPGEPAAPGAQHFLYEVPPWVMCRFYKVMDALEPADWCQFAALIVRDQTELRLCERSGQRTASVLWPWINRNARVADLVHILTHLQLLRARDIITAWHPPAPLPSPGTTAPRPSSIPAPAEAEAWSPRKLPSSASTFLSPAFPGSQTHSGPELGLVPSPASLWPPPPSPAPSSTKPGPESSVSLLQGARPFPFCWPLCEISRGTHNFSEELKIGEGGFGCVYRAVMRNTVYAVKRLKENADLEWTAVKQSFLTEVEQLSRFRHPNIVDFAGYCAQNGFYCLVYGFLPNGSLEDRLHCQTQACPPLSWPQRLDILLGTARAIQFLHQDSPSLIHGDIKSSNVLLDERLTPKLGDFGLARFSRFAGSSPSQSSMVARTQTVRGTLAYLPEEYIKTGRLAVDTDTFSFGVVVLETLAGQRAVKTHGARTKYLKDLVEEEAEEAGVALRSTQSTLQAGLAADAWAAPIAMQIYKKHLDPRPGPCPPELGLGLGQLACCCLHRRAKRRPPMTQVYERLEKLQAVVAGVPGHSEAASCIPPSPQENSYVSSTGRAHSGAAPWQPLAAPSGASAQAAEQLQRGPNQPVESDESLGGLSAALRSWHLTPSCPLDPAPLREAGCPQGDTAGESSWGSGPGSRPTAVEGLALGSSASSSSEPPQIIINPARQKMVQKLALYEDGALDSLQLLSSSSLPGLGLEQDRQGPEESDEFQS
T4 sequence (P07333 20-972): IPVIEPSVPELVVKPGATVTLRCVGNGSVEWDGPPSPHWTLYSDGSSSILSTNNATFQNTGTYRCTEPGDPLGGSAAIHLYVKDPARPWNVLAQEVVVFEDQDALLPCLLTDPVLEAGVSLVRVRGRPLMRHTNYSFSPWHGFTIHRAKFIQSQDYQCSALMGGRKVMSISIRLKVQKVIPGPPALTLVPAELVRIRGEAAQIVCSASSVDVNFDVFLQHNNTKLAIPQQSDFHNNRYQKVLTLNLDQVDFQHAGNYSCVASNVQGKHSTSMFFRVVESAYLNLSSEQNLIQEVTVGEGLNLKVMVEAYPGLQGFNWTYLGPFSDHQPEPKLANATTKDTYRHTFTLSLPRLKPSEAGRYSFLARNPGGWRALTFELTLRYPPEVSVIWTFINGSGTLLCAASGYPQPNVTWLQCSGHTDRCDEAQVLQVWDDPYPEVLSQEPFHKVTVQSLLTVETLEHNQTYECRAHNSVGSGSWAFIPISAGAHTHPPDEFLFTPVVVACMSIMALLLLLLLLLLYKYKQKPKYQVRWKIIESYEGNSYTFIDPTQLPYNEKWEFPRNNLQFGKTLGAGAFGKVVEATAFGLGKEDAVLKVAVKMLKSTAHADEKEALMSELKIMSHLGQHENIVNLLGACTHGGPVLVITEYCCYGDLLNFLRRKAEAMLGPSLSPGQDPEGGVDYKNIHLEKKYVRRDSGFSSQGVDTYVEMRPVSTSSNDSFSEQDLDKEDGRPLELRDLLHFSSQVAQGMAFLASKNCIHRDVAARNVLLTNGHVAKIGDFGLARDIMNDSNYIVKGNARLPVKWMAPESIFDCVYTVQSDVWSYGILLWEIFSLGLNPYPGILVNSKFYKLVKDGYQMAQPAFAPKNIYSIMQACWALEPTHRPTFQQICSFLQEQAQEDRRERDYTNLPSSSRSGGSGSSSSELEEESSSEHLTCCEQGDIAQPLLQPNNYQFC

In the case of `Cc1cccc(-c2cc3nccc(Nc4ccccc4)c3s2)c1` [BK40143], the inhibition at 10 µM (KIT) is reported as 100%, the remaining binding at 10 µM (KIT) is reported as 0% and the inhibition at 10 µM (MEK5) is reported as 99.7%. For the same compound, the remaining binding at 10 µM (MEK5) was 0.35%, the inhibition at 10 µM (SRC) was 84.7% and the remaining binding at 10 µM (SRC) was 5.3%. The inhibition at 10 µM (CSF1R) was 62%, the remaining binding at 10 µM (CSF1R) was 38% and the inhibition at 10 µM (IRAK1) was 54%. For the same compound, the remaining binding at 10 µM (IRAK1) was 46%, the “labelled cells (autophagic vacuoles), induction of autophagy” value [1] was “significant increases in labelled cells” and the “amyloid concentrations in dentate gyrus (6E10 staining)” value [2] was “robustly decreased amyloid concentrations in the dentate gyrus of the hippocampus”. The “microglial activation (IBA1 staining)” value [3] was “significant reduction in microglial activation” and the “surface area of microglia (Imaris)” value [3] was “significantly reduced surface area of microglia”.

In the case of `Cc1cccc(-c2cc3nccc(N4CCOCC4)c3s2)c1` [BK40197], the inhibition at 10 µM (KIT) is reported as 99.7%, the remaining binding at 10 µM (KIT) is reported as 0.3% and the inhibition at 10 µM (MEK5) is reported as 93.1%. It also gave a remaining binding at 10 µM (MEK5) of 6.9%, an inhibition at 10 µM (SRC) of 19% and a remaining binding at 10 µM (SRC) of 81%. For the same compound, the inhibition at 10 µM (CSF1R) was 77%, the remaining binding at 10 µM (CSF1R) was 23% and the inhibition at 10 µM (IRAK1) was 94.7%. For the same compound, the remaining binding at 10 µM (IRAK1) was 5.3%, the “labelled cells (autophagic vacuoles), induction of autophagy” value [1] was “significant increases in labelled cells” and the “amyloid concentrations in dentate gyrus (6E10 staining)” value [2] was “robustly decreased amyloid concentrations in the dentate gyrus of the hippocampus”. The “microglial activation (IBA1 staining)” value [3] was “significant reduction in microglial activation” and the “surface area of microglia (Imaris)” value [3] was “significantly reduced surface area of microglia”.
